Source: US20230002334A1, “TRPM8 MODULATORS” (Givaudan SA, priority 2019, published 2023)

Columns and labels:
[1] = biological target: T1, hTRPM8 (Homo sapiens, UniProt Q7Z2W7); test: Assay on TRPM8 modulators: calcium imaging (Fluo-4, Flexstation) in HEK293 cell line stably expressing hTRPM8; format: cell-based; settings: HEK293 cells stably expressing hTRPM8, calcium influx, sigmoidal dose-response fit; read-out: EC50
T1 construct: expressed in transfected cells
Outline: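 Calcium influx monitored by Fluo-4 (2.7 μM with […] probenecid, 1 h 37 °C loading) in HEK293 cells stably expressing hTRPM8, in HEPES buffer pH 7.4 with 2 mM CaCl2. Fluorescence read 15 s before and 105 s after adding serial compound dilutions. Maximal activation relative to solvent and 31.6 μM menthol; EC50 from sigmoidal fit.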

[2] = system: panelists (mouth, mucosa); test: Sensory studies in aqueous solution (trained panel, swilling in the mouth); format: in vivo, human; settings: 40 ppm in aqueous solution; for time of max cooling / Max. cooling: 20 mL swilled 60 seconds; for Max. cooling / Cooling after 1 h: averaged panel score on scale 0 to 10; for Cooling after 1 h: 1 h after swilling
Method: The compounds as listed below in Table 2 were dissolved at a concenteration of 1 wt-% in propylene glycol. These solutions were then dispensed in appropriate quantities into deionized water containing 0.5 wt-% Poloxamer 407 (which is a hydrophilic non-ionic surfactant, e.g., commercially available from SigmaAldrich) and 0.25 wt-% Cremaphor® RH40 (obtained from BASF) as solubilizer, to obtain the desired final concentration of 40 ppm (parts per milion) of the respective compound.
A trained group of panelists evaluated the aqueous solutions containing test compound by swilling 20 mL of the solution in the mouth for 60 seconds, followed by spitting, without rinsing the mouth afterwards for the duration of the evaluation. Panelists evaluated and recorded the cooling performance as well as other sensorial and organoleptic attributes at different timepoints over a period of two hours. Cooling performance was rated on a scale from 0 to 10 with 0 being no effect and 10 being freezing. Scores were averaged for all panelists and the cooling intensity qualified as “N” for “none” (score of 0), “L” for “low” (score above 0, up to 1), “M” for “medium” (score above 1, up to 4), “S” for “strong” (score above 4, up to 8) and “E” for “extreme” (score above 8), which are provided in Table 2. […] All tasted samples developed cooling sensation starting during swilling (almost immediately upon contact with the mucosa) and before expectorating.

[3] = system: panelists (mouth); test: Sensory studies in model dentifrice (trained panel, tooth brushing); format: in vivo, human; settings: 100 ppm in model unflavored dentifrice; for time of max cooling / Max. cooling: 1 g brushed 60 seconds; for Max. cooling / Cooling after 1 h: averaged panel score on scale 0 to 10; for Cooling after 1 h: 1 h after brushing
Method: The compounds listed in Table 3 were dissolved at a concenteration of 1 wt-% in propylene glycol. These solutions were then dispersed in appropriate quantities to obtain the desired final concentration of 100 ppm (parts per milion) of the test compound into a model, unflavored dentifrice, the formula of which is given below (ingredients obtained from the suppliers respectively indicated in parenthesis).
A trained group of panelists evaluated the dentifrice containing a compound of formula (I), by brushing their teeth with 1 g of the dentifrice using a toothbrush for 60 seconds, followed by spitting, without rinsing the mouth afterwards for the duration of the evaluation. Panelists evaluated and recorded the cooling performance as well as other sensorial and organoleptic attributes at different timepoints over a period of two hours. Cooling performance was rated on a scale from 0 to 10 with 0 being no effect and 10 being freezing. Scores were averaged for all panelists and the cooling intensity qualified as “N” for “none” (score of 0), “L” for “low” (score above 0, up to 1), “M” for “medium” (score above 1, up to 4), “S” for “strong” (score above 4, up to 8) and “E” for “extreme” (score above 8), which are summarized below in Table 3. […] All tasted samples developed cooling sensation starting during brushing, before expectorating.

T1 sequence (Q7Z2W7 whole entry): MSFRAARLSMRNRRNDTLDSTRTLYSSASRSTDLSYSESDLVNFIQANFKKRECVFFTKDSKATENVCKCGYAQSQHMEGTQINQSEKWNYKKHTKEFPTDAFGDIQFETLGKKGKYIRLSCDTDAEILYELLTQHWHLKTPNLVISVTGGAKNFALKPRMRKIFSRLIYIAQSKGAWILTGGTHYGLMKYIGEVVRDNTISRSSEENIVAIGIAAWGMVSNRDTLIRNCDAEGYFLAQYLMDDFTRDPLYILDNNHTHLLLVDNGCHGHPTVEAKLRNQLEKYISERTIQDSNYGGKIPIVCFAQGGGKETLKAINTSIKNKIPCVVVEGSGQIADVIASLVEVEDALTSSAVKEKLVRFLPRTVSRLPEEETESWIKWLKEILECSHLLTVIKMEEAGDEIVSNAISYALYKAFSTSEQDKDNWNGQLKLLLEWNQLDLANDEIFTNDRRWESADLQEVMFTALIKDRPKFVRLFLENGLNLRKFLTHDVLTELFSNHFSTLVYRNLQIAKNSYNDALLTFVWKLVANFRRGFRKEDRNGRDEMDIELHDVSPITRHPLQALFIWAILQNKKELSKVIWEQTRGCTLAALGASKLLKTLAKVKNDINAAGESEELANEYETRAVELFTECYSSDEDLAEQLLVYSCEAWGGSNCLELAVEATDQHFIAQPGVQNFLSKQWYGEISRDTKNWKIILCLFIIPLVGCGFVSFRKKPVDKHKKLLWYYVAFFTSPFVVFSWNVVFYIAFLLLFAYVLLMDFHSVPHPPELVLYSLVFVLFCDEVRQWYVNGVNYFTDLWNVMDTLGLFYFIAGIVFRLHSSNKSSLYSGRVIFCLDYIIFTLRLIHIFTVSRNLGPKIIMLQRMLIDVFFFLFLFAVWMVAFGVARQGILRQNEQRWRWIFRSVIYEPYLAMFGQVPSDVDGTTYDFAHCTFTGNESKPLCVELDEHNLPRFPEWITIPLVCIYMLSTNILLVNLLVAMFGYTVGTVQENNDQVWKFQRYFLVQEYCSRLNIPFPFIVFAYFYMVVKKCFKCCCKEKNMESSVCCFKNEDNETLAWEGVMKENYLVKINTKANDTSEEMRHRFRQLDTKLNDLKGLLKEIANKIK

EC50 [1] [nM]	Compound	time of max cooling [2] [min]	Max. cooling [2]	Cooling after 1 h [2]	time of max cooling [3] [min]	Max. cooling [3]	Cooling after 1 h [3]
50 to 300	C[C@H]1C[C@@](C)(c2ccccc2)C[C@@H]2[C@@H]1N(C)OC2(C)C (racemic) [Compound 48, rac-(3aR,5R,7S,7aR)-1,3,3,5,7-pentamethyl-5-phenyloctahydrobenzo[c]isoxazole]	10	S (“S” for “strong” (score above 4, up to 8))	M (“M” for “medium” (score above 1, up to 4))	5	M (“M” for “medium” (score above 1, up to 4))	L (“L” for “low” (score above 0, up to 1))
< 50	C[C@H]1C[C@@](C)(c2ccc(F)cc2)C[C@@H]2[C@@H]1N(C)OC2(C)C (racemic) [Compound 102, rac-(3aR,5R,7S,7aR)-5-(4-fluorophenyl)-1,3,3,5,7-pentamethyloctahydrobenzo[c]isoxazole]	10	S (“S” for “strong” (score above 4, up to 8))	M (“M” for “medium” (score above 1, up to 4))	10	M (“M” for “medium” (score above 1, up to 4))	M (“M” for “medium” (score above 1, up to 4))
